From patent publication US6596726B1, “Tricyclic compounds capable of inhibiting tyrosine kinases of the epidermal growth factor receptor family” (Warner Lambert Company, priority 1994, dated 2003)

What was measured:
[1] = system: erbB-2, 3, 4 autophosphorylation in SK-BR-3 breast tumor cells; experiment: Inhibition of conditioned media-induced autophosphorylation in SK-BR-3 breast tumor cells; format: cell-based, human; conditions: SK-BR-3 cells, read-out: SKBR-3 IC50
Description: Cells were grown to 100% confluency in 100 mm Petrie dishes (Corning). After the cells were treated for 5 minutes with either EGF (epidermal growth factor), PDGF, or bFGF (basic fibroblast growth factor) (20 ng/ml) or 1 ml of conditioned media from MDA-MB-231 cells, the media was removed and the monolayer scraped into 1 ml of ice cold lysis buffer (50 mM Hepes, pH 7.5, 150 mM NaCl, 10% glycerol, 1% triton X-100, 1 mM EDTA, 1 mM EGTA, 10 mM sodium pyrophosphate, 30 mM p-nitrophenyl phosphate, 1 mM orthovanadate, 50 mM sodium fluoride, 1 mM phenylmethylsulfonylfluoride, 10 μg/ml of aprotinin, and 10 μg/ml of leupeptin). The lysate was transferred to a microfuge tube (small centrifuge that holds 1-2 ml plastic centrifuge tubes), allowed to sit on ice 15 minutes and centrifuged 5 minutes at 10,000×g. The supernatant was transferred to a clean microfuge tube and 5 μg of antibody was added to designated samples. The tubes were rotated for 2 hours at 4° C. after which 25 μl of protein A sepharose was added and then rotation continued for at least 2 more hours. The protein A separose was washed 5 times with 50 mM Hepes, pH 7.5, 150 mM NaCl, 10% glycerol and 0.02% sodium azide. The precipitates were resuspended with 30 μl of Laemlli buffer (Laemmli, NATURE, […], pp. 680-685, 1970), heated to 100° C. for 5 minutes and centrifuged to obtain the supernatant. Whole cell extracts were made by scraping cells grown in the wells of 6 well plates into 0.2 ml of boiling Laemmli buffer. The extract were transferred to a microfuge tube and heated to 100° C. for 5 minutes. The entire supernatant from the immunoprecipitation or 35 μl of the whole cell extract was loaded onto a polyacrylamide gel (4-20%) and electrophoresis carried out by the method of Laemlli (Laemmli, 1970). Proteins in the gel were electrophoretically transferred to nitrocellulose and the membrane was washed once in 10 mM Tris buffer, pH 7.2, 150 mM NaCl, 0.01% Azide (TNA) and blocked overnight in TNA containing 5% bovine serum albumin and 1% ovalbumin (blocking buffer). The membrane was blotted for 2 hours with the primary antibody (1 μg/ml in blocking buffer) and then washed 2 times sequentially in TNA, TNA containing 0.05% Tween-20 and 0.05% Nonidet P-40 (commercially available detergent) and TNA. The membranes were then incubated for 2 hours in blocking buffer containing 0.1 μCi/ml of [^125I] protein A and then washed again as above. After the blots were dry they were loaded into a film cassette and exposed to X-AR X-ray film for 1-7 days. Protein A is a bacterial protein that specifically bonds certain IgG subtypes and is useful in binding to and isolating antibody-antigen complexes.
Inhibition of EGF-Induced Autophosphorylation in A431 Epidermoid Carcinoma Cells and Conditioned Media-Induced Autophosphorylation in SK-BR-3 Breast Tumor Cells by Compounds of the Current Invention

[2] = system: SK-BR-3 human breast carcinoma overexpressing erbB-2 and erbB-3; experiment: Growth inhibition assay (antiproliferative), SK-BR-3; format: cell-based; conditions: 72 h, SK-BR-3 cells, 3 days
Description: Cells (2×10^4) were seeded in 24-well plates (1.7×1.6 cm, flat bottom) in two mls of medium with or without various concentrations of drug. Plates were incubated for 3 days at 37° in a humidified atmosphere containing 5% CO2 in air. Cell growth was determined by cell count with a Coulter Model AM electronic cell counter (Coulter Electronics, Inc., Hialeah, Fla.).

[3] = system: B104-1-1 NIH-3T3 mouse fibroblasts transfected by the neu oncogene; experiment: Growth inhibition assay (antiproliferative), B104-1-1; format: cell-based; conditions: 72 h, B104-1-1 cells, 3 days
From the text: Antiproliferative Properties of Tyrosine Kinase Inhibitors IC50 (nM)
B104-1-1—NIH-3T3 mouse fibroblasts transfected by the neu oncogene: Stern et al., Science, 234, pp. 321-324 (1987);

IC50 [1]: 55 nM
IC50 [2]: 200 nM
Structure (SMILES): Brc1cccc(Nc2ncnc3cc4[nH]cnc4cc23)c1 [Example 6, 4-(3-Bromoanilino)imidazolo[4,5-g]quinazoline]
IC50 [3]: 3200 nM
